Laboratory results published in US20240139125A1 (INDUSTRIAL COOPERATION FOUNDATION JEONBUK NATIONAL …, priority 2020, published 2024).

Assays:
Assay type in all cases: cell-based
HT1080 = test: Cell proliferation/viability with BIA, IC50 after 3 days; settings: Homo sapiens, HT-1080, 72 h; HT1080, treatment for 3 days
SKBR3 = test: as above; settings: Homo sapiens, SK-BR-3, 72 h; SKBR3 cells, treatment for 3 days
[1] = tested on: BI-1 (TMBIM6) knockout HT1080 cells; test: Cell proliferation of knockout cells with BIA (off-target check)
Method: BI-1 (TMBIM6) WT HT1080 cells, BI-1 (TMBIM6) knockout HT1080 , human breast cancer cell lines MCF7, MDA-MB-231 and SKBR3 were treated with BIA 0.5, 1.0, 2.0, 5.0, 10.0 μM and cell proliferation was confirmed. Cells with proliferation of all cell lines by 5 μM BIA treatment It was confirmed that viability was inhibited (see FIG. 57).
Cell proliferation in BI-1 (TMBIM6) knockout HT1080 cells was investigated to determine if the antiproliferative effect by BIA at this dose was an off-target effect. The cell proliferation rate and AKT phosphorylation of BI-1 (TMBIM6) knockout HT1080 cells were the same with or without BIA except for high concentrations of “20 and 30 μM” (see FIG. 57).
Cell proliferation was investigated in BI-1 (TMBIM6) knockout HT1080 cells to determine if the antiproliferative effect by BIA at the dose was a non-targeted effect. The cell proliferation rate and AKT phosphorylation of BI-1 (TMBIM6) knockout HT1080 cells were the same in the treated and untreated groups of BIA except for high concentrations of “20 and 30 μM” (see FIGS. 63A and 63B).

[2] = target: T1, binding of BI-1 and mTORC2 and ribosomes (Homo sapiens, UniProt P55061); test: PLA, immunoprecipitation and gel filtration of BI-1/mTORC2/ribosome binding
T1 construct: expressed in transfected cells
Method: The graph below quantifies the fine and bright spots (n=5 independent experiment). The scale bar represents 20 μm. Data were expressed as mean±SD. **p<0.01, ****p<0.0001, followed by a binary ANOVA, followed by Bonferroni's post hoc test.
FIG. 62B is the result of PLA between RICTOR and the following proteins mTOR, RPL19 and RPS 16 in HT1080 cells treated with 10 μM BIA. The scale bar represents 20 μm. The graph on the right quantifies the fine and bright points (n=5 independent experiment). Data were expressed as mean±SD. **p<0.01, ***p<0.001, ****p<0.0001, followed by a binary ANOVA followed by Bonferroni's post hoc test.
HT1080 cells knocked out of BI-1 (using 8 10 cm cell culture dishes for each sample) were temporarily transformed using HA-BI-1 (TMBIM6) plasmids. HT1080 cells knocked out of BI-1 were treated with 10 μM of 2E-1-2-Aminophenyl-3-3-nitrophenyl-2-propen-1-one (BIA). After 24 hours, CHAPS containing protease inhibitor cocktail and phosphatase inhibitor cocktail Cells were lysed in 1.0 ml of buffer (pH 7.4, 150 mM NaCl, 1 mM EDTA and 25 mM HEPES at 0.3% CHAPS). The cell lysate was filtered with a 0.45 μm syringe filter. […] 50 μL of each fraction was electrophoresis with SDS-PAGE and then detected with various antibodies. […]

SARS-CoV2 virus = test: MTT cell viability of Vero E6 cells infected with SARS-CoV2; settings: Vero E6, SARS-CoV2 0.1 MOI, 500 nM, 24 hours after treatment; control DMSO-S 66.52±2.28%; 0.5 µM
Method: Vero E6 cells, monkey kidney cell masters, were dispensed at 1×10^4 cells/well per well in 96 well plates and incubated at 37° C., 5% CO2 incubators for 24 hours. SARS-CoV2 to infect Vero E6 cells was S ARS-CoV 43326 distributed from the National Pathogen Resource Bank, and DMEM (2% FBS, 1% antibiotic-antimycotic) medium was dispensed at 100 μL/well to infect 0.1 MOI. For 1 hour The virus was removed after 1 hour of infection in a 37° C., 5% CO2 incubator.
Next, samples prepared so that BIA or analogue compounds were finally 500 nM were dispensed 100 μL/well, including the culture medium, and then treated in a 37° C., 5% CO2 incubator for 24 hours. In the same way, the group treated with 2 μM, 5 μM, or 10 μM of Remdesivir (Rem) was a positive control.
Check the condition of the cells, add 100 μL/well of 0.5 mg/ml MTT solution, react in a 37° C., 5% CO2 incubator for 4 hours, wash out the media, and DMSO to the cells by 100 μL/well After sufficient dissolution, absorbance was measured at 540 nm with a plate reader to evaluate cell viability.
To confirm the possibility of viral prevention and therapeutic effects of BIA and its analogue compounds, 500 nM treatment of BIA analogue at the same time as viral infection, and then MTT assay whether the viability of cells against viral infection is improved after 24 hours. The results confirmed are shown in the graph of FIG. 82.

T1 sequence (P55061 whole entry): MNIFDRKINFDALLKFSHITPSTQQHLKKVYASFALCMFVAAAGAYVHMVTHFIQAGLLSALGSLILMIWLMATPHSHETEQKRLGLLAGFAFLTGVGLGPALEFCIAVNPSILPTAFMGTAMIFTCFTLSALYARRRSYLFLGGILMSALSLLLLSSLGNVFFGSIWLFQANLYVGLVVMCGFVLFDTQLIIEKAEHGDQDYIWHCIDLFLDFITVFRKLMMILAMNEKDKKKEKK

Which IC50 (HT1080) does the source give for `Nc1ccccc1C(=O)/C=C/c1cccc([N+](=O)[O-])c1` [BIA, 2E-1-2-Aminophenyl-3-3-nitrophenyl-2-propen-1-one] here?
The IC50 was 1700 ± 100 nM.

What about the IC50 (SKBR3) of the same molecule?
Its IC50 is 2400 ± 400 nM.

And the dose-dependent cell survival ([1]; BI-1 (TMBIM6) knockout cells)?
Its dose-dependent cell survival is “did not show a decrease”.

What about the “cell proliferation rate and AKT phosphorylation with or without BIA” value ([1]; BI-1 knockout HT1080, except for high concentrations of 20 and 30 μM) of the same molecule?
The value was “the same”.

And the “protein interactions between mTORC2 and ribosomes or binding of BI-1 and mTORC2 and ribosomes” value ([2]; HT1080 cells, PLA and immunoprecipitation)?
The value was “inhibited”.

What about the “co-elution pattern with mTORC2 components (mTOR and RICTOR) and ribosomes (RPL19)” value ([2]; gel filtration, BI-1 overexpressed HT1080 cells, BIA for 24 hours) of the same molecule?
The value was “delayed”.

What about the cell viability (SARS-CoV2 virus) of the same molecule?
The cell viability was 77.94±5.51%.
